From patent publication US6528456B2, “Herbicidal 2-pyrazolyl-6-aryloxypyri(mi)dines” (BASF Aktiengesellschaft, priority 1999, dated 2003)

What was measured:
Type in all cases: in vivo
Ipomoea hederacea = experiment: Pre-emergence test; conditions: 3 weeks after treatment
Method: (§1) To evaluate their herbicidal activity, compounds according to the invention are tested using a representative range of plants: IPHOE Ipomoea hederacea The pre-emergence tests involve spraying a liquid formulation of the compound onto the soil in which the seeds of the plant species mentioned above has recently been sown. The soil used in the tests is a prepared horticultural loam. The formulations used in the tests are prepared from solutions of the test compounds in acetone containing 0.4% by weight of an alkylphenol/ethylene oxide condensate available under the trade mark TRITON X-155. These acetone solutions are diluted with water and the resulting formulations applied at dosage levels corresponding to 0.025 kg, 0.100 kg or 0.400 kg of active material per hectare in a volume equivalent to 900 litres per hectare. In these tests untreated sown soil are used as controls. From 2 to 4 weeks after treatment, the tests are terminated and each pot is examined and rated according to the rating system set forth below: [table]

Matricaria inodora [1] = experiment: Pre-emergence test; conditions: 3 weeks after treatment
Method: as §1, with “MATIN Matricaria inodora” for “IPHOE Ipomoea hederacea”

Setaria viridis = experiment: Pre-emergence test; conditions: 3 weeks after treatment
Method: as §1, with “SETVI Setaria viridis” for “IPHOE Ipomoea hederacea”

Hordeum vulgare = experiment: Pre-emergence test; conditions: 3 weeks after treatment
Method: as §1, with “HORVW Hordeum vulgare” for “IPHOE Ipomoea hederacea”

Zea mays = experiment: Pre-emergence test; conditions: 3 weeks after treatment
Method: as §1, with “ZEAMX Zea mays” for “IPHOE Ipomoea hederacea”

Galium aparine = experiment: Post-emergence test; conditions: 2-4 weeks after treatment
Method: (§2) To evaluate their herbicidal activity, compounds according to the invention are tested using a representative range of plants: GALAP Galium aparine [table] […] These acetone solutions are diluted with water and the resulting formulations applied at dosage levels equivalent of about 0.1 to 0. 4 kg per hectare of test compound per pot. After spraying the plants are placed on greenhouse benches and are cared for in the usual manner, commensurate with conventional greenhouse practices. From 2 to 4 weeks after treatment, the seedling plants are examined and rated according to the rating system provided above.

Matricaria inodora [2] = experiment: Post-emergence test; conditions: 2-4 weeks after treatment
Method: as §2, with “MATIN Matricaria inodora” for “GALAP Galium aparine”

Glycine max = experiment: Post-emergence test; conditions: 2-4 weeks after treatment
Method: To evaluate their herbicidal activity, compounds according to the invention are tested using a representative range of plants:
These acetone solutions are diluted with water and the resulting formulations applied at dosage levels equivalent of about 0.1 to 0. 4 kg per hectare of test compound per pot. After spraying the plants are placed on greenhouse benches and are cared for in the usual manner, commensurate with conventional greenhouse practices. From 2 to 4 weeks after treatment, the seedling plants are examined and rated according to the rating system provided above.

| Compound | IPOHE herbicidal rating (Ipomoea hederacea; 0.025 kg/ha) | IPOHE herbicidal rating (Ipomoea hederacea; 0.100 kg/ha) | IPOHE herbicidal rating (Ipomoea hederacea; 0.400 kg/ha) | MATIN herbicidal rating (Matricaria inodora [1]; 0.100 kg/ha) | MATIN herbicidal rating (Matricaria inodora [1]; 0.400 kg/ha) | SETVI herbicidal rating (Setaria viridis; 0.025 kg/ha) | SETVI herbicidal rating (Setaria viridis; 0.100 kg/ha) | SETVI herbicidal rating (Setaria viridis; 0.400 kg/ha) | HORVW herbicidal rating (Hordeum vulgare; 0.025 kg/ha) | HORVW herbicidal rating (Hordeum vulgare; 0.100 kg/ha) | HORVW herbicidal rating (Hordeum vulgare; 0.400 kg/ha) | ZEAMX herbicidal rating (Zea mays; 0.025 kg/ha) | ZEAMX herbicidal rating (Zea mays; 0.100 kg/ha) | ZEAMX herbicidal rating (Zea mays; 0.400 kg/ha) | GALAP herbicidal rating (Galium aparine; 0.1 kg/ha) | GALAP herbicidal rating (Galium aparine; 0.4 kg/ha) | MATIN herbicidal rating (Matricaria inodora [2]; 0.1 kg/ha) | MATIN herbicidal rating (Matricaria inodora [2]; 0.4 kg/ha) | GLXMA herbicidal rating (Glycine max; 0.1 kg/ha) | GLXMA herbicidal rating (Glycine max; 0.4 kg/ha) | other results |
| --- | --- | --- | --- | --- | --- | --- | --- | --- | --- | --- | --- | --- | --- | --- | --- | --- | --- | --- | --- | --- | --- |
| Cc1cnc(-c2cc(C(F)(F)F)nn2C)nc1Oc1cc(C(F)(F)F)nn1C [Example 4, 2-(1-Methyl-3-trifluoromethylpyrazol-5-yl)-6-(1-methyl-3-trifluoromethylpyrazol-5-yloxy)-5-methylpyrimidine] | 4 (4 - Injury) | 6 (6 - Herbicidal effect) | 9 (9 - Complete kill) | 8 (8 - Approaching complete kill) | 9 (9 - Complete kill) | 8 (8 - Approaching complete kill) | 9 (9 - Complete kill) | 9 (9 - Complete kill) | 2 (2 - Slight effect) | 4 (4 - Injury) | 5 (5 - Definite injury) | 2 (2 - Slight effect) | 2 (2 - Slight effect) | 3 (3 - Moderate effect) | 8 (8 - Approaching complete kill) | 9 (9 - Complete kill) | 5 (5 - Definite injury) | 7 (7 - Good herbicidal effect) | 4 (4 - Injury) | 6 (6 - Herbicidal effect) | MATIN herbicidal rating (Matricaria inodora [1]; 0.025 kg/ha): 8 (8 - Approaching complete kill) |
| Cc1cc(Oc2cccc(C(F)(F)F)c2)nc(-c2cc(C(F)(F)F)nn2C)c1 [Example 63] | 0 (0 - No effect) | 0 (0 - No effect) | 3 (3 - Moderate effect) | 6 (6 - Herbicidal effect) | 9 (9 - Complete kill) | 1 (1 - Trace effect) | 5 (5 - Definite injury) | 9 (9 - Complete kill) | 0 (0 - No effect) | 0 (0 - No effect) | 2 (2 - Slight effect) | 0 (0 - No effect) | 0 (0 - No effect) | 0 (0 - No effect) | 5 (5 - Definite injury) | 5 (5 - Definite injury) | 5 (5 - Definite injury) | 7 (7 - Good herbicidal effect) | 3 (3 - Moderate effect) | 7 (7 - Good herbicidal effect) |  |
| Cn1nc(C(F)(F)F)cc1Oc1cc(C#N)cc(-c2cc(C(F)(F)F)nn2C)n1 [Example 3, 4-Cyano-2-(1-methyl-3-trifluoromethylpyrazol-5-yloxy)-6-(1-methyl-3-trifluoromethylpyrazol-5-yl)pyridine] | 2 (2 - Slight effect) | 2 (2 - Slight effect) | 9 (9 - Complete kill) | 9 (9 - Complete kill) | 9 (9 - Complete kill) | 3 (3 - Moderate effect) | 5 (5 - Definite injury) | 8 (8 - Approaching complete kill) | 2 (2 - Slight effect) | 3 (3 - Moderate effect) | 5 (5 - Definite injury) | 3 (3 - Moderate effect) | 3 (3 - Moderate effect) | 5 (5 - Definite injury) | 3 (3 - Moderate effect) | 9 (9 - Complete kill) | 8 (8 - Approaching complete kill) | 8 (8 - Approaching complete kill) | 3 (3 - Moderate effect) | 4 (4 - Injury) | MATIN herbicidal rating (Matricaria inodora [1]; 0.025 kg/ha): 9 (9 - Complete kill) |
